Assay results: publication PMC10256809, “Unlocking the potentials of cyanobacterial photosynthesis for directly converting carbon dioxide into glucose” (Nature Communications, 2023)

Assays:
Glk1 = molecular target: T1, Glk1 (Synechococcus elongatus, UniProt Q31RR6); assay: PK/LDH-coupled sugar phosphorylation assay, […] nm; type: biochemical; conditions: 10 mM sugar, 2.5 mM ATP, 4 mM MgCl2, 20 mM KCl, Tris-HCl pH 7.8
T1 construct: gene glk
T1 sequence (Q31RR6 1-345): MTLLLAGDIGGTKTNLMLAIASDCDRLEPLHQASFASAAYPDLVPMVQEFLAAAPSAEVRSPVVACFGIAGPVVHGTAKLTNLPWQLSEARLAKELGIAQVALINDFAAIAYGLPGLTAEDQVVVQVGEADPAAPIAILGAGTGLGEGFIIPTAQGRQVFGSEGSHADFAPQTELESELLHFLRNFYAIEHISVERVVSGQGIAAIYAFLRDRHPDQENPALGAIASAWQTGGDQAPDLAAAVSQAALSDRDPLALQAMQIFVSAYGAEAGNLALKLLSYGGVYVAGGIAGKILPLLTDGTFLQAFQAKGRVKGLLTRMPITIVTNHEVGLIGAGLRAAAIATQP

Glk2 = molecular target: T2, Glk2 (Synechococcus elongatus, UniProt Q31LC8); assay: PK/LDH-coupled sugar phosphorylation assay, […] nm; type: biochemical; conditions: 10 mM sugar, 2.5 mM ATP, 4 mM MgCl2, 20 mM KCl, Tris-HCl pH 7.8
T2 construct: gene Synpcc7942_2111
T2 sequence (Q31LC8 1-302): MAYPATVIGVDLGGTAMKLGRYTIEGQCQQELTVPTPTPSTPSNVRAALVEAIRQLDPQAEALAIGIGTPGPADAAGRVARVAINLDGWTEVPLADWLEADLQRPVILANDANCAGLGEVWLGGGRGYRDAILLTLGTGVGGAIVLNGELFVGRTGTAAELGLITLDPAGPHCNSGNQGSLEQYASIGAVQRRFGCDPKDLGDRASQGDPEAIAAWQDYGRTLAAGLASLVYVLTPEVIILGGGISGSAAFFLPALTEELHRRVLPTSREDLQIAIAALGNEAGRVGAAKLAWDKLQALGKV

In the case of `OC[C@H]1OC(O)[C@H](O)[C@@H](O)[C@@H]1O` (some centres unmarked) [glucose], the “PK/LDH-coupled sugar phosphorylation assay, 340 nm” value (Glk1) is reported as “both the two glucokinases showed phosphorylation activities on some other sugars besides glucose” and the “PK/LDH-coupled sugar phosphorylation assay, 340 nm” value (Glk2) is reported as “both the two glucokinases showed phosphorylation activities on some other sugars besides glucose”.
